# Assay results: patent US20100256229A1, “COMPOSITIONS OF CHOL[…]” (priority 2009, published 2010)
# Counter-ions that a name gives are not always drawn.
# How the values were obtained:
# male Wistar rats = test: Wake promotion, EEG/EMG sleep-wake monitoring (SCORE2004); details: for duration of wakefulness (total minutes of sleep loss): dosed at CT-5, various dose ranges
# Description: Test compounds in various dose ranges or vehicle were administered to male Wistar rats 5 hours after lights on (CT-5). EEG, EMG, locomotor activity, drink- and food-related activity, and body temperature were concurrently monitored for 30 hr before and after treatment from rats living in separate isolated recording chambers.
# [1] = Solubility (formulation studies)
# [2] = Mechanical stress (micronizing); format: physicochemical; details: micronizing 20 minutes at 30 Hz, after standing 20 minutes; ball mill stress
# Source text: FIG. 13 is two microscopic views of the hydrogen fumarate salt of compound 3d under mechanical stress.
# [3] = Hygroscopicity testing and sorption isotherm; format: physicochemical; details: for hygroscopicity testing, appearance: sulfate after 3 days, fumarate after 7 days
# [4] = Solid state and solution stability; details: for solid state stability to heat: 40° C. for 7 days; for solid state stability to UV: 220 W-h/m^2; for solid state stability to visible light: visible light exposure, 7.3×10^6 lux hours
# rhAChE [5] = biological target: T1, rhAChE (Homo sapiens, UniProt P22303); test: Decarbamylation / reconstitution of inhibited enzyme; format: biochemical; details: for Decarbamylation rate k: phosphate buffer, 37° C., first-order model
# T1 sequence (P22303 32-614): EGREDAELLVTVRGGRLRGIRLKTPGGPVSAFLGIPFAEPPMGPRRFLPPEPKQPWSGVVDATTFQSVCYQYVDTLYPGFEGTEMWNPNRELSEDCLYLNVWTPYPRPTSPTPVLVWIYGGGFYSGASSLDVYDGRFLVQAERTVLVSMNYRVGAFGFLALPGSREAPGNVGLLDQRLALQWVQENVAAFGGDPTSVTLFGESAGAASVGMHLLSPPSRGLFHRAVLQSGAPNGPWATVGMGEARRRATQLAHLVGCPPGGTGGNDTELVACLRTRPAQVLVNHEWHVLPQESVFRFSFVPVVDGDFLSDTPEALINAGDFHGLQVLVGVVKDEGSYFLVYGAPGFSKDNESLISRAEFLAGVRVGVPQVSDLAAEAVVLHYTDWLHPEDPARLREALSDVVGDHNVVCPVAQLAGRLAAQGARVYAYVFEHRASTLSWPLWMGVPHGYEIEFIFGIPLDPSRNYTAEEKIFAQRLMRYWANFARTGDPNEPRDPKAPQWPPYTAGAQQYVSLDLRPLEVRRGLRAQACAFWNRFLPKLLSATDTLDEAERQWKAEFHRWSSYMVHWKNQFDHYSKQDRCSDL
# Description: Next, the release of amphetamine from inhibited cholinesterase was investigated indirectly by monitoring reconstitution of enzyme activity as described above. […] The enzyme was separated from small organic molecules (carbamate and possible degradation products) by size exclusion chromatography over a Sephadex column. Purified, inhibited enzyme was incubated in phosphate buffer at 37° C., aliquots were drawn at various time points and the enzymatic activity was determined as described above. The data were plotted as the natural logarithm of the percent inhibition versus time according to a first-order kinetics model. The decarbamylation rate constant k was determined as the slope of this line. The halflife t1/2 is directly related to k (k=−ln(0.500)/t1/2).
# [6] = tested on: total brain cholinesterase; test: In vivo inhibition of brain cholinesterase after oral dosing; parameters: species or system rats
# Description: (§1) Following administration, rats were sacrificed and blood and brain samples were collected, processed and ChE activity was determined spectrophotometrically as described above.
# [7] = tested on: total plasma cholinesterase; test: In vivo inhibition of plasma cholinesterase after oral dosing; parameters: species or system rats
# Description: as §1
# [8] = biological target: T2, BuChE (human, purified from) (Homo sapiens, UniProt P06276); test: In vitro inhibition of BuChE, modified Ellman procedure; format: biochemical; details: purified human butyrylcholinesterase (plasma); mean of two or three independent experiments; read-out: hBuChE IC50
# T2 construct: BuChE (human, purified from erythrocytes); from tissue
# T2 sequence (P06276 29-602): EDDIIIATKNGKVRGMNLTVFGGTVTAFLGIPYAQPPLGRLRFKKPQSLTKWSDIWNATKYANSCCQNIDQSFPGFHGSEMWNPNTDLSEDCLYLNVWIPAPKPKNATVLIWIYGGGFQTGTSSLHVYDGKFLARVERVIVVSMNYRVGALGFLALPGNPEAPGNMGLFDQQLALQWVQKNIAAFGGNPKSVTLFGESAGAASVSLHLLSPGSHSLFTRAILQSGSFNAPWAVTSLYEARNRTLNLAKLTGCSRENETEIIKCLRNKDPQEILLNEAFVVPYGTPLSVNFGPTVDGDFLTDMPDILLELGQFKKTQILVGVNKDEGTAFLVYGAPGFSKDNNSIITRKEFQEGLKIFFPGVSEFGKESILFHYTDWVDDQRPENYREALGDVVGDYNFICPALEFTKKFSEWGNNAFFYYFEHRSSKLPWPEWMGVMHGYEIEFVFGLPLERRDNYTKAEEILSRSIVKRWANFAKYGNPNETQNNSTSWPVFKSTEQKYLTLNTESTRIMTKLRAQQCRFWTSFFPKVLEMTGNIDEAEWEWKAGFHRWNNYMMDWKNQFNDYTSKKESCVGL
# rhAChE [9] = biological target: T1, rhAChE; details: for IC50: read-out: rhAChE IC50
# [10] = biological target: Recombinant human cholinesterase (Homo sapiens, UniProt P22303); test: Amphetamine release from inhibited enzyme, LC/MS/MS; format: biochemical
# Recombinant human cholinesterase, sequence (P22303 32-614): as the sequence (P22303 32-614) above
# [11] = Maximum Tolerated Dose determination
# Description: The in vivo effectiveness of the stigmine compounds in vivo inhibitors was evaluated. Initially, the Maximum Tolerated Dose (MTD) was determined for each compound. The MTD was defined as the dose at which clear, yet reversible and non-life threatening cholinergic effects were observed.
# as §1
# [12] = tested on: scopolamine model of passive avoidance; test: Scopolamine model of passive avoidance; format: in vivo, rats; details: 8 and 12 mg/kg i.p. 30 minutes before training; scopolamine 0.2 mg/kg s.c.; p<0.01
# Description: Prior to training, rats were injected with scopolamine hydrobromide (0.2 mg/kg, s.c, 40 minutes before training) and with either saline or compound 4a (8, 12, 16 or 24 mg/kg, i.p, 30 minutes prior to training). The animals received a retention test 24 hours following training. The retention test was identical to training except that no foot-shock or drug was delivered. Latency to enter the dark chamber was recorded.
# [13] = tested on: rats trained to discriminate methamphetamine from saline; test: Drug discrimination (methamphetamine versus saline); format: in vivo; details: 0.1-3.2 mg/kg i.p. or 0.32-10 mg/kg p.o.
# Source text: Drug discrimination is an operant paradigm that enables assessment of drug abuse liability (Yasar & Bergman, 1994. Amphetamine-like effect of 1-deprenyl (selegiline) in drug discrimination studies. Clin. Pharmacol. Therap. 56 (S78), 768-773). In this paradigm, psychostimulant properties of compounds may be determined in rats trained to discriminate methamphetamine from saline. Hungry rats are initially placed in a test apparatus where they learn that pressing either of two levers results in delivery of a food pellet. […]. On other days, rats are pretreated with vehicle, and must then select the opposite lever in order to obtain food. In this way, rats must learn to use the interoceptive cues generated by the psychostimulant drug to guide its choice of levers. Once lever pressing to a predetermined criterion has been established, a test compound can be administered. […]. If the rat chooses the methamphetamine lever, the test drug is said to have shown stimulus generalization; that is, it is perceived to be methamphetamine-like by the rat. […].
# [14] = 60 minutes after oral dosing at MTD or highest dose tested, n = 4
# [15] = oral dosing at MTD, mean of three measurements between 30 and 180 min following dosing
structure (smiles),measurement,setting,value
"C[C@@H](Cc1ccccc1)NC(=O)Oc1cccc([C@H](C)N(C)C)c1 [C, s-riva-d-amphetamine]",duration of wakefulness (total minutes of sleep loss),male Wistar rats,dose-related increase in wakefulness
"C[C@H](Cc1ccccc1)N(C)C(=O)Oc1cccc([C@H](C)N(C)C)c1 [Compound 3d, 3-((S)-1-(dimethylamino)ethyl)phenyl methyl-((R)-1-phenylpropan-2 yl)carbamate]",solubility,"[1]; pH 3, aqueous buffer",> 50 mg/mL
same,solubility,"[1]; sixteen vehicles for oral dosing (rodents), aqueous with cosolvent or surfactant or cyclodextrin",> 50 mg/mL
same,mechanical stress,[2],instability to extreme thermal conditions
same,hygroscopicity testing by DSC and XRPD,"[3]; 40° C./75 RH, 7 days",stability over 7 days
same,maximum moisture uptake (sorption isotherm),[3]; at 75 RH,about 1%
same,solid state stability to heat,[4],stable
same,solid state stability to UV,[4],stable
same,solution stability,"[4]; pH 4, 5, 6, after 7 days, HPLC recovery",stable
same,solid state stability to visible light,[4],no change
C[C@@H](Cc1ccccc1)NC(=O)Oc1cccc([C@H](C)N(C)C)c1 [Compound 4a],enzyme reconstitution,rhAChE [5]; at 4 h,80%
same,Decarbamylation rate k,rhAChE [5],0.558 h⁻¹
same,Brain ChEI,[6]; [14],72%
same,Plasma ChEI,[7]; [14],59%
same,IC50,[8],7320 nM
same,more selective for AChE than rivastigmine,rhAChE [9],225 fold
same,IC50,rhAChE [9],508 nM
same,d-amphetamine in decarbamylation aliquots,[10]; aliquots drawn 4 h later,53 ng/mL
same,amphetamine in decarbamylation aliquots,[10]; aliquots drawn at t=0,did not contain amphetamine
same,MTD,"[11]; rat, in vivo, po",> 100 mg/kg
same,"scopolamine-induced amnesia, step-through latency at 24 h retention test",[12],alleviated
C[C@H](Cc1ccccc1)NC(=O)Oc1cccc([C@H](C)N(C)C)c1 [Compound 4b],Decarbamylation rate k,rhAChE [5],0.057 h⁻¹
same,Brain ChEI,[6]; [14],25%
same,Plasma ChEI,[7]; [14],26%
same,IC50,[8],416 nM
same,IC50,rhAChE [9],404 nM
same,MTD,"[11]; rat, in vivo, po",32 mg/kg
C[C@@H](c1cccc(OC(=O)N(C)[C@@H](C)Cc2ccccc2)c1)N(C)C [Compound 4c],Decarbamylation rate k,rhAChE [5],0.003 h⁻¹
same,Brain ChEI,[6]; [14],50%
same,Plasma ChEI,[7]; [14],50%
same,IC50,[8],334 nM
same,MTD,"[11]; rat, in vivo, po",> 64 mg/kg
CC(c1cccc(OC(=O)N(C)C(C)Cc2ccccc2)c1)N(C)C (centres unmarked) [Compound 4d],Decarbamylation rate k,rhAChE [5],0.011 h⁻¹
same,Brain ChEI,[6]; [14],64%
same,Plasma ChEI,[7]; [14],45%
same,IC50,[8],24400 nM
same,MTD,"[11]; rat, in vivo, po",10 mg/kg
"C[C@H](Cc1ccccc1)NC(=O)Oc1cccc([C@H](C)N(C)C)c1 [Compound A, s-riva-l-amphetamine]",duration of wakefulness (total minutes of sleep loss),male Wistar rats,dose-related increase in wakefulness
"C[C@H](Cc1ccccc1)N(C)C(=O)Oc1cccc([C@H](C)N(C)C)c1 [Compound B, s-riva-l-methamphetamine]",duration of wakefulness (total minutes of sleep loss),male Wistar rats,dose-related increase in wakefulness
same,rebound hypersomnolence,male Wistar rats; following administration,not observed
same,body temperature,"male Wistar rats; rat, in vivo",reduction in body temperature
same,locomotor activity,"male Wistar rats; rat, in vivo",did not cause locomotor hyperactivity
same,increase in wakefulness compared with reference compounds,"male Wistar rats; versus d-amphetamine, rivastigmine, modafinil",surpassed that seen with the reference compounds tested
same,stimulus generalization to methamphetamine (lever selection),[13],did not select the methamphetamine lever
"C[C@@H](c1cccc(OC(=O)N(C)[C@@H](C)Cc2ccccc2)c1)N(C)C [D, s-riva-d-methamphetamine]",duration of wakefulness (total minutes of sleep loss),male Wistar rats,dose-related increase in wakefulness
"CCN(C)C(=O)Oc1cccc([C@H](C)N(C)C)c1 [Rivastigmine, rivastigmine, reference compound]",duration of wakefulness (total minutes of sleep loss),male Wistar rats,increased wakefulness
same,Brain ChEI,[6]; [15],56%
same,Plasma ChEI,[7]; [15],39%
same,MTD,"[11]; oral, dose with clear, reversible, non-life threatening cholinergic effects, or highest dose tested",5 mg/kg
"C[C@H](N)Cc1ccccc1 [d-amphetamine, reference compound]",duration of wakefulness (total minutes of sleep loss),male Wistar rats,increased the duration of wakefulness
"C[C@H](Cc1ccccc1)N(C)C(=O)Oc1cccc([C@H](C)N(C)C)c1.O=C(O)/C=C/C(=O)O [hydrogen fumarate salt of compound 3d, 3-((S)-1-(Dimethylamino)ethyl)phenyl methyl-((R)-1-phenylpropan-2 yl)carbamate Hydrogen Fumarate]",mechanical stress,[2],gumming
same,"hygroscopicity testing, appearance",[3]; 40° C./75 RH,solid
same,"hygroscopicity, analysis by microscopy",[3]; after 7 days at 75% relative humidity,remains crystalline with traces of amorphous material
same,solid state stability to heat,[4],stable
same,solid state stability to UV,[4],stable
same,chemical stability in water,[4]; up to 7 days at 40° C.,stable
same,solid state stability to visible light,[4],stable
"C[C@H](Cc1ccccc1)N(C)C(=O)Oc1cccc([C@H](C)N(C)C)c1 [hydrogen sulfate salt of compound 3d, 3-(S)-1-(Dimethylamino)ethyl)phenyl methyl-((R)-1-phenylpropan-2 yl)carbamate Hydrogen Sulfate]","hygroscopicity testing, appearance",[3]; 40° C./75 RH,deliquesces
"NC(=O)C[S+]([O-])C(c1ccccc1)c1ccccc1 (centres unmarked) [modafinil, reference compound]",duration of wakefulness (total minutes of sleep loss),male Wistar rats,increased the duration of wakefulness
